The values below are quoted from earlier work in PubChem BioAssay AID1259409 (Chemical Carcinogenesis Research Information System (CCRIS), 2018).

For the data set, the system named is rodent chemically induced tumor inhibition, incidence and multiplicity. Nature of the data set: CCRIS tumor inhibitor studies.

Consider `Cc1cc(C(C)(C)C)c(O)c(C(C)(C)C)c1`, for which the “tumour outcome (control, treated, inhibition, significance)” value is given as 27/34 (79%), 5/18 (28%), 64%, p<0.01 (Carcinogen: 7,12-DIMETHYLBENZ[A]ANTHRACENE, 57-97-6, Dose [Inhibitor]: 200 MG ML 1 ML IN OLIVE OIL ONCE (STUDY DURATION: 18 WK), Route [Inhibitor]: GAVAGE, Species: RAT, Strain/Sex: SPRAGUE-DAWLEY/FEMALE, Target Tissue: Type of Lesion: MAMMARY GLAND: TUMOR, Dose [Carcinogen]: 12 MG IN 1 ML OLIVE OIL ADMINISTERED 1 HR AFTER INHIBITOR, Promoter: NONE USED); “(82%, 35%, 57%, not calculated” (Carcinogen: 7,12-DIMETHYLBENZ[A]ANTHRACENE, 57-97-6, Dose [Inhibitor]: 1000 UG APPLIED 6 HR BEFORE, 5 MIN BEFORE, AND 6 HR AFTER DMBA (STUDY DURATION: 28 WK), Route [Inhibitor]: DERMAL, Species: MOUSE, Strain/Sex: CD-1/FEMALE, Target Tissue: Type of Lesion: SKIN: PAPILLOMA, Dose [Carcinogen]: 2.56 UG APPLIED ONCE 5 MIN AFTER INHIBITOR, Promoter: 12-O-TETRADECANOYLPHORBOL-13-ACETATE, 16561-29-8); 82%, 57%, 30%, not calculated (Carcinogen: 7,12-DIMETHYLBENZ[A]ANTHRACENE, 57-97-6, Dose [Inhibitor]: 1000 UG APPLIED ONCE 5 MIN BEFORE DMBA (STUDY DURATION 28 WK), Route [Inhibitor]: DERMAL, Species: MOUSE, Strain/Sex: CD-1/FEMALE, Target Tissue: Type of Lesion: SKIN: PAPILLOMA, Dose [Carcinogen]: 2.56 UG APPLIED ONCE 5 MIN AFTER INHIBITOR, Promoter: 12-O-TETRADECANOYLPHORBOL-13-ACETATE, 16561-29-8); 88%, 68%, 23%, not significant (Carcinogen: 7,12-DIMETHYLBENZ[A]ANTHRACENE, 57-97-6, Dose [Inhibitor]: 2500 MG/KG IN DIET STARTING 2 WK BEFORE UNTIL 1 WK AFTER CARCINOGEN ADMINISTRATION (STUDY DURATION: 32 WK), Route [Inhibitor]: ORAL, Species: RAT, Strain/Sex: SPRAGUE-DAWLEY/FEMALE, Target Tissue: Type of Lesion: MAMMARY GLAND: TUMOR, Dose [Carcinogen]: 8 MG IN 1 ML SESAME OIL ADMINISTERED ONCE, Promoter: NONE USED); 12/12 (100%), 2/9 (22%), 78%, p<0.001 (Carcinogen: BENZO[A]PYRENE, 50-32-8, Dose [Inhibitor]: 5 MG/G DIET IN SESAME OIL (4%) 3/WK FOR 28 D SIMULTANEOUSLY WITH CARCINOGEN (STUDY DURATION: 21 WK), Route [Inhibitor]: ORAL, Species: MOUSE, Strain/Sex: A/HEJ/FEMALE, Target Tissue: Type of Lesion: FORESTOMACH: TUMOR, Dose [Carcinogen]: 1 MG/G DIET IN 4% SESAME OIL IN DIET 3/WK FOR 28 D, Promoter: NONE USED); 13/19 (68%), 10/20 (50%), 26%, not significant (Carcinogen: BENZO[A]PYRENE, 50-32-8, Dose [Inhibitor]: 10 MG/G DIET 3/WK FOR 28 D SIMULTANEOUSLY WITH CARCINOGEN (STUDY DURATION: 28 WK), Route [Inhibitor]: ORAL, Species: MOUSE, Strain/Sex: ICR/FEMALE, Target Tissue: Type of Lesion: FORESTOMACH: TUMOR, Dose [Carcinogen]: 0.3 MG/G DIET 3/WK FOR 28 D, Promoter: NONE USED). Further, the “tumour outcome (control, treated, inhibition, significance)” value reads like this: (Carcinogen: DIETHYLNITROSAMINE, 55-18-5, Dose [Inhibitor]: 0, 50 MG/KG IN CORN OIL FOR DURATION OF STUDY BEGINNING 7 D PRIOR TO FIRST CARCINOGEN DOSE (STUDY DURATION: 6 MO), Route [Inhibitor]: GAVAGE, Species: RAT, Strain/Sex: BD6/FEMALE, Target Tissue: Type of Lesion: ESOPHAGUS: TUMOR, Dose [Carcinogen]: 80 MG/KG BW 1/WK FOR 6 WK, Promoter: NONE USED) 14%, 0%, 100%, not significant; (Carcinogen: DIETHYLNITROSAMINE, 55-18-5, Dose [Inhibitor]: 0, 50 MG/KG IN CORN OIL FOR DURATION OF STUDY BEGINNING 7 D PRIOR TO FIRST CARCINOGEN DOSE (STUDY DURATION: 6 MO), Route [Inhibitor]: GAVAGE, Species: RAT, Strain/Sex: BD6/FEMALE, Target Tissue: Type of Lesion: ESOPHAGUS: TUMOR, Dose [Carcinogen]: 80 MG/KG BW 1/WK FOR 8 WK, Promoter: NONE USED) 20%, 4%, 80%, not significant; (Carcinogen: DIETHYLNITROSAMINE, 55-18-5, Dose [Inhibitor]: 0, 50 MG/KG IN CORN OIL FOR DURATION OF STUDY BEGINNING 7 D PRIOR TO FIRST CARCINOGEN DOSE (STUDY DURATION: 6 MO), Route [Inhibitor]: GAVAGE, Species: RAT, Strain/Sex: BD6/FEMALE, Target Tissue: Type of Lesion: LIVER: TUMOR, Dose [Carcinogen]: 80 MG/KG BW 1/WK FOR 6 WK, Promoter: NONE USED) 52%, 23%, 56%, not significant; (Carcinogen: DIETHYLNITROSAMINE, 55-18-5, Dose [Inhibitor]: 0, 50 MG/KG IN CORN OIL FOR DURATION OF STUDY BEGINNING 7 D PRIOR TO FIRST CARCINOGEN DOSE (STUDY DURATION: 6 MO), Route [Inhibitor]: GAVAGE, Species: RAT, Strain/Sex: BD6/FEMALE, Target Tissue: Type of Lesion: LIVER: TUMOR, Dose [Carcinogen]: 80 MG/KG BW 1/WK FOR 8 WK, Promoter: NONE USED) 83%, 72%, 13%, not significant; (Carcinogen: HYDRAZINE SULFATE, 10034-93-2, Dose [Inhibitor]: 5000 PPM IN DIET STARTING 1 WK PRIOR TO ADMINISTRATION OF CARCINOGEN UNTIL END OF EXPERIMENT (STUDY DURATION: APPROXIMAT, Route [Inhibitor]: ORAL, Species: MOUSE, Strain/Sex: SWISS/MALE, FEMALE, Target Tissue: Type of Lesion: LIVER AND LUNG: COMBINED TUMORS, Dose [Carcinogen]: 1.1 MG/D 5 D/WK UNTIL 12 MO OF AGE, Promoter: NONE USED) 24/29 (83%), 19/28 (68%), 18%, not significant; (Carcinogen: ISONIAZID, 54-85-3, Dose [Inhibitor]: 5000 PPM IN DIET STARTING 1 WK PRIOR TO ADMINISTRATION OF CARCINOGEN UNTIL END OF EXPERIMENT (STUDY DURATION: APPROXIMAT, Route [Inhibitor]: ORAL, Species: MOUSE, Strain/Sex: SWISS/MALE, FEMALE, Target Tissue: Type of Lesion: LIVER AND LUNG: COMBINED TUMORS, Dose [Carcinogen]: 1.1 MG/D 5 D/WK UNTIL 25 M OF AGE, Promoter: NONE USED) 16/29 (55%), 4/20 (20%), 64%, p<0.05. Moreover, the “tumour outcome (control, treated, inhibition, significance)” value is, setting by setting: (Carcinogen: ISONIAZID, 54-85-3, Dose [Inhibitor]: 5000 PPM IN DIET STARTING 1 WK PRIOR TO ADMINISTRATION OF CARCINOGEN UNTIL END OF EXPERIMENT (STUDY DURATION: APPROXIMAT, Route [Inhibitor]: ORAL, Species: MOUSE, Strain/Sex: SWISS/MALE, FEMALE, Target Tissue: Type of Lesion: LIVER AND LUNG: COMBINED TUMORS, Dose [Carcinogen]: 1.1 MG/D 5 D/WK UNTIL 25 MO OF AGE, Promoter: NONE USED) 16/29 (55%), 5/20 (25%), 54%, p<0.05; (Carcinogen: N-BIS(2-HYDROXYPROPYL)NITROSAMINE, 53609-64-6, Dose [Inhibitor]: 0, 1% IN DIET FOR 30 WK BEGINNING POST CARCINOGEN TREATMENT (STUDY DURATION: 32 WK), Route [Inhibitor]: ORAL, Species: RAT, Strain/Sex: F344/MALE, Target Tissue: Type of Lesion: BLADDER: ADENOMA, Dose [Carcinogen]: 0.1% IN DRINKING WATER FOR 2 WK, Promoter: NONE USED) 5%, 0%, 100%, not calculated; (Carcinogen: N-BIS(2-HYDROXYPROPYL)NITROSAMINE, 53609-64-6, Dose [Inhibitor]: 0, 1% IN DIET FOR 30 WK BEGINNING POST CARCINOGEN TREATMENT (STUDY DURATION: 32 WK), Route [Inhibitor]: ORAL, Species: RAT, Strain/Sex: F344/MALE, Target Tissue: Type of Lesion: KIDNEY: TUMOR, Dose [Carcinogen]: 0.1% IN DRINKING WATER FOR 2 WK, Promoter: NONE USED) 10%, 30%, -200%, not calculated.
